In ChEMBL document CHEMBL1201862, “PubChem BioAssay data set” (2004):
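Compound exposure: 48 hours, 5 concentrations, 96-well plates. GI50 marks 50% less growth.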 The source made the active and inactive calls. Rule as the data show it: active = GI50 up to about 1.1 µM and inactive = higher.

Assays:
Assay in all cases: NCI anticancer screen, dose series, 48 h
SNB-19 = system: SNB-19
SR = system: SR
RXF 393 = system: RXF 393
UO-31 = system: UO-31
ACHN = system: ACHN
HCT-116 = system: HCT-116
OVCAR-8 = system: OVCAR-8
COLO 205 = system: COLO 205
HCC 2998 = system: HCC 2998
UACC-62 = system: UACC-62
LXFL 529 = system: LXFL 529
RPMI-8226 = system: RPMI-8226
SF-268 = system: SF-268
CAKI-1 = system: CAKI-1
XF498 = system: XF498
HOP-18 = system: HOP-18
IGROV-1 = system: IGROV-1
SW-620 = system: SW-620
LOX IMVI = system: LOX IMVI
NCI-H23 = system: NCI-H23
U-251 = system: U-251
NCI-H522 = system: NCI-H522
OVCAR-4 = system: OVCAR-4
DLD-1 = system: DLD-1
SNB-75 = system: SNB-75
KM-20L2 = system: KM-20L2
DMS-114 = system: DMS-114
SF-295 = system: SF-295
UACC-257 = system: UACC-257
CCRF-CEM = system: CCRF-CEM
SK-MEL-28 = system: SK-MEL-28
OVCAR-5 = system: OVCAR-5
SK-MEL-2 = system: SK-MEL-2
SK-OV-3 = system: SK-OV-3
TK-10 = system: TK-10
M19-MEL = system: M19-MEL
NCI-H226 = system: NCI-H226
HOP-62 = system: HOP-62
SK-MEL-5 = system: SK-MEL-5
K562 = system: K562
HT-29 = system: HT-29
OVCAR-3 = system: OVCAR-3
A498 = system: A498
M14 = system: M14
Malme-3M = system: Malme-3M
MOLT-4 = system: MOLT-4
786-0 = system: 786-0
SN12C = system: SN12C
DMS-273 = system: DMS-273
SF-539 = system: SF-539
A549 = system: A549
HOP-92 = system: HOP-92
NCI-H460 = system: NCI-H460
KM12 = system: KM12
EKVX = system: EKVX
HCT-15 = system: HCT-15
HL-60 = system: HL-60

C[N+](C)(Cc1ccc(NC(=O)CCCC(=O)ON2C(=O)CCC2=O)cc1)c1ccccc1
GI50 (SNB-19): < 10 nM (active)
GI50 (SR): < 10 nM (active)
GI50 (RXF 393): > 1000 nM (active)
GI50 (UO-31): < 10 nM (active)
GI50 (ACHN): < 10 nM (active)
GI50 (HCT-116): < 10 nM (active)
GI50 (OVCAR-8): < 10 nM (active)
GI50 (COLO 205): < 10 nM (active)
GI50 (HCC 2998): < 10 nM (active)
GI50 (UACC-62): < 10 nM (active)
GI50 (LXFL 529): < 10 nM (active)
GI50 (RPMI-8226): < 10 nM (active)
GI50 (SF-268): < 10 nM (active)
GI50 (CAKI-1): < 10 nM (active)
GI50 (XF498): > 1000 nM (active)
GI50 (HOP-18): < 10 nM (active)
GI50 (IGROV-1): < 10 nM (active)
GI50 (SW-620): < 10 nM (active)
GI50 (LOX IMVI): < 10 nM (active)
GI50 (NCI-H23): < 10 nM (active)
GI50 (U-251): < 10 nM (active)
GI50 (NCI-H522): < 10 nM (active)
GI50 (OVCAR-4): < 10 nM (active)
GI50 (DLD-1): < 10 nM (active)
GI50 (SNB-75): < 10 nM (active)
GI50 (KM-20L2): < 10 nM (active)
GI50 (DMS-114): > 1000 nM (active)
GI50 (SF-295): < 10 nM (active)
GI50 (UACC-257): < 10 nM (active)
GI50 (CCRF-CEM): < 10 nM (active)
GI50 (SK-MEL-28): < 10 nM (active)
GI50 (OVCAR-5): < 10 nM (active)
GI50 (SK-MEL-2): 23.4 nM (active)
GI50 (SK-OV-3): < 10 nM (active)
GI50 (TK-10): < 10 nM (active)
GI50 (M19-MEL): < 10 nM (active)
GI50 (NCI-H226): < 10 nM (active)
GI50 (HOP-62): < 10 nM (active)
GI50 (SK-MEL-5): < 10 nM (active)
GI50 (K562): < 10 nM (active)
GI50 (HT-29): < 10 nM (active)
GI50 (OVCAR-3): < 10 nM (active)
GI50 (A498): < 10 nM (active)
GI50 (M14): < 10 nM (active)
GI50 (Malme-3M): < 10 nM (active)
GI50 (MOLT-4): < 10 nM (active)
GI50 (786-0): < 10 nM (active)
GI50 (SN12C): < 10 nM (active)
GI50 (DMS-273): < 10 nM (active)
GI50 (SF-539): < 10 nM (active)
GI50 (A549): < 10 nM (active)
GI50 (HOP-92): < 10 nM (active)
GI50 (NCI-H460): > 1000 nM (active)
GI50 (KM12): < 10 nM (active)
GI50 (EKVX): < 10 nM (active)
GI50 (HCT-15): > 1000 nM
GI50 (HL-60): < 10 nM (active)

O=C1CCC2(CCC(=O)NC2=O)C(=O)N1
GI50 (SNB-19): > 100000 nM (inactive)
GI50 (SR): > 100000 nM (inactive)
GI50 (RXF 393): > 100000 nM (inactive)
GI50 (UO-31): > 100000 nM (inactive)
GI50 (ACHN): > 100000 nM (inactive)
GI50 (HCT-116): > 100000 nM (inactive)
GI50 (OVCAR-8): > 100000 nM (inactive)
GI50 (COLO 205): > 100000 nM (inactive)
GI50 (HCC 2998): > 100000 nM (inactive)
GI50 (LXFL 529): > 100000 nM (inactive)
GI50 (RPMI-8226): > 100000 nM (inactive)
GI50 (SF-268): > 100000 nM (inactive)
GI50 (XF498): > 100000 nM (inactive)
GI50 (IGROV-1): > 100000 nM (inactive)
GI50 (SW-620): > 100000 nM (inactive)
GI50 (LOX IMVI): > 100000 nM (inactive)
GI50 (NCI-H23): > 100000 nM (inactive)
GI50 (U-251): > 100000 nM (inactive)
GI50 (NCI-H522): > 100000 nM (inactive)
GI50 (KM-20L2): > 100000 nM (inactive)
GI50 (DMS-114): > 100000 nM (inactive)
GI50 (SF-295): > 100000 nM (inactive)
GI50 (UACC-257): > 100000 nM (inactive)
GI50 (CCRF-CEM): > 100000 nM (inactive)
GI50 (SK-MEL-28): > 100000 nM (inactive)
GI50 (SK-OV-3): > 100000 nM (inactive)
GI50 (TK-10): > 100000 nM (inactive)
GI50 (M19-MEL): > 100000 nM (inactive)
GI50 (NCI-H226): > 100000 nM (inactive)
GI50 (HOP-62): > 100000 nM (inactive)
GI50 (SK-MEL-5): > 100000 nM (inactive)
GI50 (K562): > 100000 nM (inactive)
GI50 (HT-29): > 100000 nM (inactive)
GI50 (OVCAR-3): > 100000 nM (inactive)
GI50 (M14): > 100000 nM (inactive)
GI50 (Malme-3M): > 100000 nM (inactive)
GI50 (MOLT-4): > 100000 nM (inactive)
GI50 (786-0): > 100000 nM (inactive)
GI50 (SN12C): > 100000 nM (inactive)
GI50 (DMS-273): > 100000 nM (inactive)
GI50 (SF-539): > 100000 nM (inactive)
GI50 (A549): > 100000 nM (inactive)
GI50 (NCI-H460): > 100000 nM (inactive)
GI50 (KM12): > 100000 nM (inactive)
GI50 (EKVX): > 100000 nM (inactive)
GI50 (HCT-15): > 100000 nM
GI50 (HL-60): > 100000 nM (inactive)
